Test results from paper PMC7138307 (PLoS ONE, 2020).

Assays:
PIP5K3 [1] = biological target: T1, PIP5K3 (Mus musculus, UniProt Q9Z1T6); test: In vivo target engagement, KiNativ ADP probe, mouse brain lysates; conditions: 75 mg/kg I.P., one hour, peptide GGKSGAAFYATEDDRFILK, ATP site
T1 construct: homogenized brain lysates were labeled with Desthiobiotin-ADP-acyl phosphate probe; from tissue; host or cells: mouse cortical brain lysate
Source text: To determine both in vivo target engagement and identify any potential off-target kinases inhibited by BIIB-TTBKi, we used a combination of desthiobiotin-ATP/ADP probes to covalently bind and biotinylate the conserved lysine residues at the active site of protein kinases (ActivX-KiNativ; Kyorin Pharmaceuticals, Ltd, Tokyo Japan). […] Lysates were trypsin digested and desthiobiotinylated peptides were captured on streptavidin beads. A list of 269 unique peptides were quantified through LC-MS/MS parallel reaction monitoring method. Target engagement was calculated as the percentage of peptide signal lost after addition of BIIB-TTBKi when compared to the vehicle treated lysate. Using the ADP probe, we were able to detect a total of 150 kinases in the mouse cortical brain lysates (Fig 5A).
Mice were euthanized one hour following injection and homogenized brain lysates were labeled with Desthiobiotin-ADP-acyl phosphate probe (ADP probe). Desthiobiotinylated peptides were captured on streptavidin beads and peptides were quantified through LC-MS/MS parallel reaction monitoring method. Target engagement was calculated as the percentage of peptide signal lost when compared to the vehicle treated lysate. (A) Visualization of the off-target effects of BIIB-TTBKi at 75mg/kg. The ADP probe labelled around 150 unique kinases in mouse cortical brain lysates.

TTBK1, TTBK2 = test: Ex vivo KiNativ ATP/ADP probe competition in mouse cortical brain lysates; type: binding; conditions: DIKPSNFAMGR; Lys2; ADP probe
CaMK1a = biological target: T2, CaMK1a (Mus musculus, UniProt Q91YS8); test: as above; type: binding
T2 construct: from tissue; host or cells: mouse cortical brain lysate

CK1d, CK1e = test: as above; type: binding; conditions: DVKPDNFLMGLGKK; Lys2; ATP probe
FES = biological target: T3, FES (Mus musculus, UniProt P16879); test: as above; type: binding; conditions: LRADNTPVAVKSCR, Lys1
T3 construct: homogenized brain lysates were labeled with Desthiobiotin-ADP-acyl phosphate probe; from tissue; host or cells: mouse cortical brain lysate

MLK2 = biological target: T4, MLK2 (Mus musculus, UniProt Q66L42); test: as above; type: binding; conditions: DLKSINILILEAIENHNLADTVLK; Lys2; ATP probe
T4 construct: from tissue; host or cells: mouse cortical brain lysate

PIP4K2C = biological target: T5, PIP4K2C (Mus musculus, UniProt Q91XU3); test: as above; type: binding; conditions: labeling site ATP
T5 construct: from tissue; host or cells: mouse cortical brain lysate
T5 sequence (Q91XU3 1-421): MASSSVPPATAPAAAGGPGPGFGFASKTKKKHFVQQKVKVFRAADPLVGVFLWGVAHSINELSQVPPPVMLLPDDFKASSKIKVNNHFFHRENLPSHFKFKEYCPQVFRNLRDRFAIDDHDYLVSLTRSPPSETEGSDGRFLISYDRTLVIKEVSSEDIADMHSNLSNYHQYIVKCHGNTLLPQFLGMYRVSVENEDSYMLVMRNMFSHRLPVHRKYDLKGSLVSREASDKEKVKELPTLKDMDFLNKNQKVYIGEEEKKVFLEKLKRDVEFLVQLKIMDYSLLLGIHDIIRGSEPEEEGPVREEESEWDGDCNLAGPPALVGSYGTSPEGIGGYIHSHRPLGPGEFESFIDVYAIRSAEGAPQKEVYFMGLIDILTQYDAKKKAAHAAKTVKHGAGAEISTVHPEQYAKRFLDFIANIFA

PIP5K3 [2] = biological target: T1, PIP5K3; test: as above; type: binding; conditions: GGKSGAAFYATEDDRFILK, labeling site ATP
PITSLRE = biological target: T6, PITSLRE (Mus musculus, UniProt P24788); test: as above; type: binding; conditions: DLKTSNLLLSHAGILK; Lys2; ATP probe
T6 construct: from tissue; host or cells: mouse cortical brain lysate
T6 sequence (P24788 1-784): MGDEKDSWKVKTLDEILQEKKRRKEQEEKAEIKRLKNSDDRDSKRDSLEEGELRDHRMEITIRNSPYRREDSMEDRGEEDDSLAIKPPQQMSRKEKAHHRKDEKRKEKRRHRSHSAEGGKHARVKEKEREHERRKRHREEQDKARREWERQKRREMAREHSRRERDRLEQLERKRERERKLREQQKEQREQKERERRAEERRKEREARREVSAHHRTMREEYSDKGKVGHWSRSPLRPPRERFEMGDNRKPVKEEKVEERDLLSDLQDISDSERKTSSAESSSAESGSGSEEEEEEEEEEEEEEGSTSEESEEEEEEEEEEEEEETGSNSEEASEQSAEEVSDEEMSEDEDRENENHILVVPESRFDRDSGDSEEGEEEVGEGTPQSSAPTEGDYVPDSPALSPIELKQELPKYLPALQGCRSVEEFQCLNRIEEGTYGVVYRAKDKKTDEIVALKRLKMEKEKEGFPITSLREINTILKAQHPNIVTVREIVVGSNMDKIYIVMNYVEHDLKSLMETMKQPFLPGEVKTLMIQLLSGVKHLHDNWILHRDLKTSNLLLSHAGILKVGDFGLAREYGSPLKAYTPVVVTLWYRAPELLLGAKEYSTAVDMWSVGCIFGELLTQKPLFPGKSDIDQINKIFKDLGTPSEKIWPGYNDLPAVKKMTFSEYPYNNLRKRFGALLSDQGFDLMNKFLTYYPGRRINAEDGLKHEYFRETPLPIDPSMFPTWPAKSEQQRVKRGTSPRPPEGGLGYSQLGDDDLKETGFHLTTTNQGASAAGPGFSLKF

T1 sequence (Q9Z1T6 whole entry): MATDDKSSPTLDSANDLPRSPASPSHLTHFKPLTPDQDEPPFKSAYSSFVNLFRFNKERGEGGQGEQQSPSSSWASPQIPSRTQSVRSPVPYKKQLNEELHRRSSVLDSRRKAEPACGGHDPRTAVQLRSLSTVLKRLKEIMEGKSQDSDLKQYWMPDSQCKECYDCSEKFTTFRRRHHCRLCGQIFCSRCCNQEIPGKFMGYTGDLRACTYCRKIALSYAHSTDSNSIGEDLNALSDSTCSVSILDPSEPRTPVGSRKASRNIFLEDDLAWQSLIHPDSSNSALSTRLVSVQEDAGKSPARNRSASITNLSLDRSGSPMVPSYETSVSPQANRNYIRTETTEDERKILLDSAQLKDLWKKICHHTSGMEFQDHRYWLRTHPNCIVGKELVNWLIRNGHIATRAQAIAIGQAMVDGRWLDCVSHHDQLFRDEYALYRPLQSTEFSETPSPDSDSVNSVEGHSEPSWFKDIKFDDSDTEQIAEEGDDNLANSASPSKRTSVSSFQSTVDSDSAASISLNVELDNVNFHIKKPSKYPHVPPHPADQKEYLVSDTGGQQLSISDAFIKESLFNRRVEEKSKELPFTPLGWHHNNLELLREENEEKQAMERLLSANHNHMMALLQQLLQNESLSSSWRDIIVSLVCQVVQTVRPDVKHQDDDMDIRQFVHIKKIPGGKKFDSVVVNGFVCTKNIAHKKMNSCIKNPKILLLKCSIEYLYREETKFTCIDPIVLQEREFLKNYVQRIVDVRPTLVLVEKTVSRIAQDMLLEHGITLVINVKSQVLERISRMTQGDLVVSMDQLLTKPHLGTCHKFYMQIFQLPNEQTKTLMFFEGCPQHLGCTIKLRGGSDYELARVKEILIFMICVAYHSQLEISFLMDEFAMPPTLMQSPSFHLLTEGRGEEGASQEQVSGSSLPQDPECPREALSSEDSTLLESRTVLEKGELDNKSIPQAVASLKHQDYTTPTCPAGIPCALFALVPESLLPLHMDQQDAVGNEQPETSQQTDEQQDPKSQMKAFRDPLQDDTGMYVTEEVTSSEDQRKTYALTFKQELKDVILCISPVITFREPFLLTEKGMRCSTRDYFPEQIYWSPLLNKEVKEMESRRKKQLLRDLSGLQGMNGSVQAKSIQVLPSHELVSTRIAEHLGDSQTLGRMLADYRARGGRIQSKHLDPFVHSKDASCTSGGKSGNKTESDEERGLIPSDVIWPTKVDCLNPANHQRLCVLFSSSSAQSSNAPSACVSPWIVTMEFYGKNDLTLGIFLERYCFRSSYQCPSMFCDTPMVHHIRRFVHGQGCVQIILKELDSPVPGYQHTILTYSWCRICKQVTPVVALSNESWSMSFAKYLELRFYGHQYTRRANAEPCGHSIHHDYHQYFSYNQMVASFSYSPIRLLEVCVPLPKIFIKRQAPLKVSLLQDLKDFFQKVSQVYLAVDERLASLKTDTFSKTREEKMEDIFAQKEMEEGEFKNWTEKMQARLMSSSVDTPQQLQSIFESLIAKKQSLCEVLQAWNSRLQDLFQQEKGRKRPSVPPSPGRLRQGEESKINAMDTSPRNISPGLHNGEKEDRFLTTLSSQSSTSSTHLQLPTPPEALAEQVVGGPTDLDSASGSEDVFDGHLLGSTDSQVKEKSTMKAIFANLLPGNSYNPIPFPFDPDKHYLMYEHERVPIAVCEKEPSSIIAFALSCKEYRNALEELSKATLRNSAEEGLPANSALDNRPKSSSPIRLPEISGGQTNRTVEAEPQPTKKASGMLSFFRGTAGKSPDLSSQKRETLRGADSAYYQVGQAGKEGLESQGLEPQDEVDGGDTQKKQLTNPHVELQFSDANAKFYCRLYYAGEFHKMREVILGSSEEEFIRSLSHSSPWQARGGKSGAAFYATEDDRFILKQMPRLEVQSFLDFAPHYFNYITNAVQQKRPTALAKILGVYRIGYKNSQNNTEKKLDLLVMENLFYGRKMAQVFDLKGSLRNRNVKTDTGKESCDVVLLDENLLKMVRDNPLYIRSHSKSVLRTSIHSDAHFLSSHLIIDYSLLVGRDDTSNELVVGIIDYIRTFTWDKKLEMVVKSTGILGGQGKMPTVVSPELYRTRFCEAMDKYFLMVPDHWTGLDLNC
T2 sequence (Q91YS8 whole entry): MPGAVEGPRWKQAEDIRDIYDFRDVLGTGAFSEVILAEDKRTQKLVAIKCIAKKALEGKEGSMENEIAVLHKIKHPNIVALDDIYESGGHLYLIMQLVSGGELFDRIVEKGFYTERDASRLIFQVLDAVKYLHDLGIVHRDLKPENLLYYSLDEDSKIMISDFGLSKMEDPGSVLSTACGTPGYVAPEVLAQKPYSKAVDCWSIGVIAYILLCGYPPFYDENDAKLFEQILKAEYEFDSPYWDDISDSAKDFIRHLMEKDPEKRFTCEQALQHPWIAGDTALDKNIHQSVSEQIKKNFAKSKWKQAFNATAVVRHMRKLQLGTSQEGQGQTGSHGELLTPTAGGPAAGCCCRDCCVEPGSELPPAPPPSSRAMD
T3 sequence (P16879 whole entry): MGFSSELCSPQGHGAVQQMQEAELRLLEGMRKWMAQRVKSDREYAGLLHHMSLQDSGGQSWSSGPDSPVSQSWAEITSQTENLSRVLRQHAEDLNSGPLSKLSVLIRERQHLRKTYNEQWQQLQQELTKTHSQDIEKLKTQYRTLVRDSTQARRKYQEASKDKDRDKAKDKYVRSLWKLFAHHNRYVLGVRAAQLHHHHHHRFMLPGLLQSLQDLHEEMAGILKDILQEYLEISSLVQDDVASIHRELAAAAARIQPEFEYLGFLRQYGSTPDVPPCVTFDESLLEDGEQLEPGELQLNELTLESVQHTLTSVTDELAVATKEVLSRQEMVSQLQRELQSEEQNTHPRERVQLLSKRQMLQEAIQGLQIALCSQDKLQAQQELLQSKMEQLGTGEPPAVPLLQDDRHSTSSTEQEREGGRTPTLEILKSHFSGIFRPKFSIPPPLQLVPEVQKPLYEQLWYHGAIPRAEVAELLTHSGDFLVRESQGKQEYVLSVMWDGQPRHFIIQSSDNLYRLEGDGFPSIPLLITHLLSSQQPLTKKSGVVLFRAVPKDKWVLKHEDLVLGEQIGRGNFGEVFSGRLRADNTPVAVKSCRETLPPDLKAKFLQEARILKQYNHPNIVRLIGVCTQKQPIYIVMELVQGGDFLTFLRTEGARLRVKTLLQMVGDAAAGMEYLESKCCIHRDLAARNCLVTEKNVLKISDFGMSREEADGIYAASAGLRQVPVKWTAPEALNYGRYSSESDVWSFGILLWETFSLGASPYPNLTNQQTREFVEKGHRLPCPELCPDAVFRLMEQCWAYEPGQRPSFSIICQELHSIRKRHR
T4 sequence (Q66L42 whole entry): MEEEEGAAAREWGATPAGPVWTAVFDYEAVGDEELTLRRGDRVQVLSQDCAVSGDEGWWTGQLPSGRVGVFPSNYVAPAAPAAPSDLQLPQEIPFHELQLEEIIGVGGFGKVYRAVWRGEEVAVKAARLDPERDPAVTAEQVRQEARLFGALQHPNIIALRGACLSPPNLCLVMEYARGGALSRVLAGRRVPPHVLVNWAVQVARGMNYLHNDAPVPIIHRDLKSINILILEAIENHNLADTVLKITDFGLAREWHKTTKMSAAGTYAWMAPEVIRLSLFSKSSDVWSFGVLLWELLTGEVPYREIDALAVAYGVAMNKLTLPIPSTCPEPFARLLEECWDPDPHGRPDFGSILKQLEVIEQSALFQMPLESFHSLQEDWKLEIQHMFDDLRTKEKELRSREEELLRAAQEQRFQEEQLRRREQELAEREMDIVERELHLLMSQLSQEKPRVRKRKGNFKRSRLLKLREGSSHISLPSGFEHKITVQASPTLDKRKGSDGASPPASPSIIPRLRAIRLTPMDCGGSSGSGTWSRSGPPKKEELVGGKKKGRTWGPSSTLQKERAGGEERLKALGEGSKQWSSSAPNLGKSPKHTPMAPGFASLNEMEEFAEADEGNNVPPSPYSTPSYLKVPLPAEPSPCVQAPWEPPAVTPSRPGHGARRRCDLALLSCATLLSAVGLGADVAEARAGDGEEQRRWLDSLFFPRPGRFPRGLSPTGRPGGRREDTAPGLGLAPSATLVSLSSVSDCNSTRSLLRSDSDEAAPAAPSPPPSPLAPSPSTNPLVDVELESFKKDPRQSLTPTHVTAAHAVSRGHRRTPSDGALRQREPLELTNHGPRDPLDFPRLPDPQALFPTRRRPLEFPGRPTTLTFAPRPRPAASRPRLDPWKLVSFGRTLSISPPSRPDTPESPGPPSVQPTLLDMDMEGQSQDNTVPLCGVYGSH

CCC(C)(O)C#Cc1cc2c(ccn2-c2ccnc(N)n2)cn1 (stereo not shown) [BIIB-TTBK1i]
Percent Inhibition with BIIB-TTBKi at 75mpk (PIP5K3 [1]): 90%
Percent Inhibition at 1μM (TTBK1, TTBK2): 95.8%
Percent Inhibition at 1μM (CaMK1a; DLKPENLLYYSLDEDSK, Lys2, ADP probe): 64.7%
Percent Inhibition at 1μM (CaMK1a; DLKPENLLYYSLDEDSK, Lys2, ATP probe): 63.8%
Percent Inhibition at 1μM (CaMK1a; LVAIKCIAK, Lys1, ADP probe): 69.3%
Percent Inhibition at 1μM (CaMK1a; LVAIKCIAK, Lys1, ATP probe): 69.2%
Percent Inhibition at 1μM (CK1d, CK1e): 55.5%
Percent Inhibition at 1μM (FES; ADP probe): 79.8%
Percent Inhibition at 1μM (FES; ATP probe): 61.2%
Percent Inhibition at 1μM (MLK2): 60.1%
Percent Inhibition at 1μM (PIP4K2C; TLVIKEVSSEDIADMHSNLSNYHQYIVK, ADP probe): 88.8%
Percent Inhibition at 1μM (PIP4K2C; TLVIKEVSSEDIADMHSNLSNYHQYIVK, ATP probe): 76.5%
Percent Inhibition at 1μM (PIP4K2C; VKELPTLKDMDFLNK, ATP probe): 67.9%
Percent Inhibition at 1μM (PIP5K3 [2]; ADP probe): 90.2%
Percent Inhibition at 1μM (PIP5K3 [2]; ATP probe): 95.9%
Percent Inhibition at 1μM (PITSLRE): 63.3%
